Test results reported in BindingDB's records for doi:10.1016/s0968-0896(99)00306-5 (University of Bologna, 2000).

Tests used:
Acetylcholinesterase = Acetylcholinesterase (Homo sapiens, UniProt P22303); experiment: Cholinesterase Inhibition Assay
Experimental: (§1) The cholinesterase assays were performed using colorimetric method reported by Ellman. The absorbance changes at 412 nm were recorded for 5 min with a Jasco Uvidec-610 double beam Spectrophotometer. The reaction rates were compared and the percent inhibition due to the presence of test compounds was calculated. Inhibition curve was obtained for each compound.

Cholinesterase = Cholinesterase (Homo sapiens, UniProt P06276); experiment: Cholinesterase Inhibition Assay; conditions: pH 8; 37 °C
Experimental: as §1

Chain of Cholinesterase (P06276 whole entry): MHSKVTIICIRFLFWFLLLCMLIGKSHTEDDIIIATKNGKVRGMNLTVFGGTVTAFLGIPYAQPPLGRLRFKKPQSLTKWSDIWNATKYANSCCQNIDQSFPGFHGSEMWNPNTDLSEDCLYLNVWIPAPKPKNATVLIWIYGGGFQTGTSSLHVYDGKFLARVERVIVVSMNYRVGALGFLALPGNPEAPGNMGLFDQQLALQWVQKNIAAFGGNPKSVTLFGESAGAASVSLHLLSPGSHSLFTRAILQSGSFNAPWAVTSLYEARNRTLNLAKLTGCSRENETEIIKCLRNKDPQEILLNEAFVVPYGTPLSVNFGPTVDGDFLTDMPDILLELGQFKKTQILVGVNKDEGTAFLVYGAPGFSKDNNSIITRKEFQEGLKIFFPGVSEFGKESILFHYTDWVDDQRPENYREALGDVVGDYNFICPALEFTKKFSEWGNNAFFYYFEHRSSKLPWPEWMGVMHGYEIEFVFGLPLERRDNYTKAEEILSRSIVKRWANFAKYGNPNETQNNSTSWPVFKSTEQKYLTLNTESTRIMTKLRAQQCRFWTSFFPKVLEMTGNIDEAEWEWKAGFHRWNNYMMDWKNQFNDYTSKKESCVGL
Chain of Acetylcholinesterase (P22303 whole entry): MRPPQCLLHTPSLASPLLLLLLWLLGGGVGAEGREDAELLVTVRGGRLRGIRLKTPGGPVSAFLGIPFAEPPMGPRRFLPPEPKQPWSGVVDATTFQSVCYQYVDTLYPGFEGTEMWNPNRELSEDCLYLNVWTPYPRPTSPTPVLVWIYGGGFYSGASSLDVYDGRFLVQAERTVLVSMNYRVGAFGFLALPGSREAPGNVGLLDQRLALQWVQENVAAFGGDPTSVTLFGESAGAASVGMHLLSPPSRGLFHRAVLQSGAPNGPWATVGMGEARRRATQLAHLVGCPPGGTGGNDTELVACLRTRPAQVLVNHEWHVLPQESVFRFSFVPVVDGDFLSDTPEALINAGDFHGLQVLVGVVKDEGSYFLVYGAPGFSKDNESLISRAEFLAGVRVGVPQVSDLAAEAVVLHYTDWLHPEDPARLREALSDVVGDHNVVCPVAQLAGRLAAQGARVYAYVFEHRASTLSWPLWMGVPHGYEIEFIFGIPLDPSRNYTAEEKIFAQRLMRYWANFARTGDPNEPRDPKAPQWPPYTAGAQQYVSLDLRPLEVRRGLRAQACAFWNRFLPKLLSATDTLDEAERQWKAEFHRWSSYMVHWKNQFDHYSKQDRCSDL

| Structure (SMILES) | Ki (Acetylcholinesterase) | IC50 (Cholinesterase) | IC50 (Acetylcholinesterase) |
| --- | --- | --- | --- |
| Nc1c2c(nc3ccccc13)-c1ccccc1C2 | 0.21 µM | 4.7 µM |  |
| Nc1c2c(nc3ccc([N+](=O)[O-])cc13)-c1ccccc1C2 [2-nitro-10H-indeno[1,2-b]quinolin-11-amine] |  |  | > 100 µM |
| Nc1c2c(nc3cc(Cl)ccc13)-c1ccccc1C2 [3-chloro-10H-indeno[1,2-b]quinolin-11-amine] |  |  | 6.5 µM |
| Nc1c2c(nc3cc(F)ccc13)-c1ccccc1C2 [3-fluoro-10H-indeno[1,2-b]quinolin-11-amine] |  | 5.7 µM | 1.2 µM |
| Nc1c2c(nc3cc([N+](=O)[O-])ccc13)-c1ccccc1C2 [3-nitro-10H-indeno[1,2-b]quinolin-11-amine] |  |  | 67.5 µM |
| COc1ccc2c(c1)-c1nc3ccccc3c(N)c1C2 [7-methoxy-10H-indeno[1,2-b]quinolin-11-amine] |  |  | 4.3 µM |
| Cc1ccc2c(c1)-c1nc3ccccc3c(N)c1C2 [7-methyl-10H-indeno[1,2-b]quinolin-11-amine] |  |  | 4.6 µM |
| Nc1c2c(nc3ccccc13)-c1ccc(Cl)cc1C2 [8-chloro-10H-indeno[1,2-b]quinolin-11-amine] |  |  | 5.4 µM |
| Nc1c2c(nc3ccccc13)-c1ccc(F)cc1C2 [8-fluoro-10H-indeno[1,2-b]quinolin-11-amine] |  | 7.1 µM | 0.43 µM |
| COc1ccc2c(c1)Cc1c-2nc2ccccc2c1N [8-methoxy-10H-indeno[1,2-b]quinolin-11-amine] |  |  | 6.5 µM |
| COc1cccc2c1Cc1c-2nc2ccccc2c1N [9-methoxy-10H-indeno[1,2-b]quinolin-11-amine] |  | 3 µM | 1.6 µM |
| Cc1cccc2c1Cc1c-2nc2ccccc2c1N [9-methyl-10H-indeno[1,2-b]quinolin-11-amine] |  |  | 3.9 µM |
| Nc1ccc2c(N)c3c(nc2c1)-c1ccccc1C3 [11H-Indeno-[1,2-b]-quinolin-7,10-diamine] |  |  | 29 µM |
| Nc1ccc2nc3c(c(N)c2c1)Cc1ccccc1-3 [11H-Indeno-[1,2-b]-quinolin-8,10-diamine] |  |  | 5.9 µM |
| CCCCCCCNc1c2c(nc3ccccc13)-c1ccccc1C2 [N-Heptyl-N-11H-indeno-[1,2-b]-quinolin-10-yl)-amine] |  |  | 4.3 µM |
| c1ccc(CNc2c3c(nc4ccccc24)-c2ccccc2C3)cc1 [N-benzyl-10H-indeno[1,2-b]quinolin-11-amine] | 7.5 µM | 0.5 µM | 7.1 µM |
| CNc1c2c(nc3ccccc13)-c1ccccc1C2 [N-methyl-10H-indeno[1,2-b]quinolin-11-amine] |  | 1.6 µM | 1.3 µM |
